# Patent publication US20030027819A1, “Beta-sheet mimetics and methods relating to the use thereof” (Molecumetics Ltd., priority 1996, published 2003)
# pKi: −log10 of the molar value.
# Target: thrombin (Bos taurus, UniProt P00735)
# Experiment: Thrombin inhibition by solid phase compounds of Tables 11-15
# Type: biochemical
# Set-up: 100 μl of 10 μM thrombin solution
# Details: mixtures of diastereomers; read-out: Ki as thrombin inhibitors (mark at Cpd. No.)
# Experimental: Following extensive washing with DMF, the resin was treated with the acid fluoride of N-Fmoc-4-aminomethylbenzoic acid, or (81), or (86) and Hunigs' base in DMF until the Kaiser test was negative. Alternatively, the Fmoc-protected thiazole-(75) or imidazole-based (77) linkers were coupled to the resin using BOP, HOBt and DIEA. In some instances Fmoc-Leu or another amino acid was attached to the resin prior to the thiazole-(75) or imidazole-based (77) linkers via the same methodology. […] Following washing with DMF a dienoic acid was coupled to the resin-bound linkers using PyBOP, HOBt and Hunigs' base in DMF until the result of a Kaiser test was negative. The cycloaddition was performed by pretreatment of a solution of a pyrazolidinedione (not shown) or urazole in DMF with a solution of [bis(trifluoroacetoxy)iodo]benzene in DMF. […] The resin was then washed with DMF and CH2Cl2. Oxidation to the ketoamide was effected by treatment of the resin with a solution of Dess-Martin periodinane in DMSO for 60 min. […] The supernatant was collected and the resin was washed with additional TFA. The combined filtrates were concentrated in vacuo. The residue was precipitated with diethyl ether and the ether was decanted. The resulting solid was reconstituted in 1:1 CH3CN:H2O and lyophilized. […] The compounds were assayed for inhibition of coagulation enzymes as mixtures of diastereomers.
row,SMILES,pKi
1,CC(C)(C)CC1C=CC(C(=O)NC(CCCCN)C(=O)C(=O)NCCc2ccc(C(N)=O)cc2)n2c(=O)n(C(c3ccccc3)c3ccccc3)c(=O)n21 (centres unmarked) [Structure 141],> 8.00
2,CC(C)CC1C=CC(C(=O)NC(CCCCN)C(=O)C(=O)NCCc2ccc(C(N)=O)cc2)n2c(=O)n(Cc3cccs3)c(=O)n21 (centres unmarked) [Structure 116],> 8.00
3,CC1=CC(C(=O)NC(CCCCN)C(=O)C(=O)NCCc2ccc(C(N)=O)cc2)n2c(=O)n(Cc3cc(F)ccc3F)c(=O)n2C1 (centres unmarked) [Structure 222],> 8.00
4,CC(C)(C)CC1C=CC(C(=O)NC(CCCCN)C(=O)C(=O)NCCc2ccc(C(N)=O)cc2)n2c(=O)n(Cc3ccccc3)c(=O)n21 (centres unmarked) [Structure 140],> 8.00
5,CC1=CC(C(=O)NC(CCCCN)C(=O)C(=O)NCc2ccc(C(N)=O)cc2)N2C(=O)C(N)(Cc3ccccc3)C(=O)N2C1 (centres unmarked) [Structure 189],> 8.00
6,CCC=CCCC1C=CC(C(=O)NC(CCCCN)C(=O)C(=O)NCCc2ccc(C(N)=O)cc2)n2c(=O)n(C(Cc3ccccc3)c3ccccc3)c(=O)n21 (mixture of isomers) [Structure 105],> 8.00
7,CC(C)(C)CC1C=CC(C(=O)NC(CCCCN)C(=O)C(=O)NCCc2ccc(C(N)=O)cc2)n2c(=O)n(C(Cc3ccccc3)c3ccccc3)c(=O)n21 (centres unmarked) [Structure 144],> 8.00
8,CC1=CC(C(=O)NC(CCCNC(=N)N)C(=O)c2nc3ccccc3s2)n2c(=O)n(Cc3ccccc3)c(=O)n2C1 (centres unmarked) [Structure 211],> 8.00
9,CC1=CC(C(=O)NC(CCCCN)C(=O)C(=O)NCCc2ccc(C(N)=O)cc2)n2c(=O)n(C(c3ccccc3)c3ccccc3)c(=O)n2C1 (centres unmarked) [Structure 138],> 8.00
10,CC1=CC(C(=O)NC(CCCCN)C(=O)C(=O)NCc2ccc(C(=O)NCCc3ccccc3)cc2)n2c(=O)n(Cc3cc(F)ccc3F)c(=O)n2C1 (centres unmarked) [Structure 102],> 8.00
11,CC(C)(C)CC1C=CC(C(=O)NC(CCCCN)C(=O)C(=O)NCCc2ccc(C(N)=O)cc2)n2c(=O)n(Cc3cc(F)ccc3F)c(=O)n21 (centres unmarked) [Structure 225],> 8.00
12,CC1=CC(C(=O)NC(CCCCN)C(=O)C(=O)NCCc2ccc(C(N)=O)cc2)n2c(=O)n(C(Cc3ccccc3)c3ccccc3)c(=O)n2C1 (centres unmarked) [Structure 136],> 8.00
13,CC(CC1C=CC(C(=O)NC(CCCCN)C(=O)C(=O)NCCc2ccc(C(N)=O)cc2)n2c(=O)n(CC(c3ccccc3)c3ccccc3)c(=O)n21)CC(C)(C)C (centres unmarked) [Structure 130],> 8.00
14,CCC=CCCC1C=CC(C(=O)NC(CCCCN)C(=O)C(=O)NCCc2ccc(C(N)=O)cc2)n2c(=O)n(Cc3cc(F)ccc3F)c(=O)n21 (mixture of isomers) [Structure 103],> 8.00
15,CC(C)(C)CC1C=CC(C(=O)NC(CCCCN)C(=O)C(=O)NCCc2ccc(C(N)=O)cc2)n2c(=O)n(Cc3cc(F)ccc3F)c(=O)n21 (centres unmarked) [Structure 139],> 8.00
16,COc1ccccc1-n1c(=O)n2n(c1=O)C(C(=O)NC(CCCCN)C(=O)C(=O)NCCc1ccc(C(N)=O)cc1)C=CC2CC(C)C (centres unmarked) [Structure 114],> 8.00
17,CCC=CCCC1C=CC(C(=O)NC(CCCCN)C(=O)C(=O)NCCc2ccc(C(N)=O)cc2)n2c(=O)n(Cc3ccc(C(F)(F)F)c(F)c3)c(=O)n21 (mixture of isomers) [Structure 104],> 8.00
18,CC(CC1C=CC(C(=O)NC(CCCCN)C(=O)C(=O)NCCc2ccc(C(N)=O)cc2)n2c(=O)n(Cc3ccccc3)c(=O)n21)CC(C)(C)C (centres unmarked) [Structure 132],> 8.00
19,CCC=CCCC1C=CC(C(=O)NC(CCCCN)C(=O)C(=O)NCCc2ccc(C(N)=O)cc2)n2c(=O)n(Cc3ccccc3)c(=O)n21 (mixture of isomers) [Structure 107],> 8.00
20,CC1=CC(C(=O)NC(CCCCN)C(=O)C(=O)NCCc2ccc(C(N)=O)cc2)n2c(=O)n(Cc3cccc4ccccc34)c(=O)n2C1c1ccccc1 (centres unmarked) [Structure 125],> 8.00
21,CC(C)(C)CC1C=CC(C(=O)NC(CCCCN)C(=O)C(=O)NCCc2ccc(C(N)=O)cc2)n2c(=O)n(CC(c3ccccc3)c3ccccc3)c(=O)n21 (centres unmarked) [Structure 143],> 8.00
22,CC(CC1C=CC(C(=O)NC(CCCCN)C(=O)C(=O)NCCc2ccc(C(N)=O)cc2)n2c(=O)n(Cc3ccc(C(F)(F)F)c(F)c3)c(=O)n21)CC(C)(C)C (centres unmarked) [Structure 134],> 8.00
23,COc1ccccc1-n1c(=O)n2n(c1=O)C(C(=O)NC(CCCCN)C(=O)C(=O)NCCc1ccc(C(N)=O)cc1)C=CC2CC(C)CC(C)(C)C (centres unmarked) [Structure 127],> 8.00
24,CC1=CC(C(=O)NC(CCCCN)C(=O)C(=O)NCCc2ccc(C(N)=O)cc2)N2C(=O)C(Cc3ccccc3)(Cc3ccccc3)C(=O)N2C1 (centres unmarked) [Structure 187],> 8.00
25,CC1=CC(C(=O)NCC2CCC(N)CC2)n2c(=O)n(CCS(=O)(=O)c3ccccc3)c(=O)n2C1 (centres unmarked) [Structure 221-5],> 8.00

row,SMILES,pKi
1,CC(C)(C)CC1C=CC(C(=O)NC(CCCCN)C(=O)C(=O)NCCc2ccc(C(N)=O)cc2)n2c(=O)n(CCc3ccccc3)c(=O)n21 (centres unmarked) [Structure 142],> 8.00
2,NCCCCC(NC(=O)C1C=C2CCCCC2n2c(=O)n(Cc3cc(F)ccc3F)c(=O)n21)C(=O)C(=O)NCCc1ccc(C(N)=O)cc1 (centres unmarked) [Structure 120],> 8.00
3,CC1=CC(C(=O)NC(CCCCN)C(=O)C(=O)NCCc2ccc(C(N)=O)cc2)n2c(=O)n(Cc3cc(F)ccc3F)c(=O)n2C1c1ccccc1 (centres unmarked) [Structure 122],> 8.00
4,CC1=CC(C(=O)NC(CCCCN)C(=O)C(=O)NCCc2ccc(C(N)=O)cc2)N2C(=O)C(CC(C)C)(CC(C)C)C(=O)N2C1 (centres unmarked) [Structure 188],> 8.00
5,CC1=CC(C(=O)NCC2CCC(C(=N)N)CC2)n2c(=O)n(CC(c3ccccc3)c3ccccc3)c(=O)n2C1 (centres unmarked) [Structure 221-18],> 8.00
6,CC1=CC(C(=O)NC(CCCNC(=N)N)C(=O)c2nc3ccccc3s2)n2c(=O)n(Cc3ccccc3)c(=O)n2C1 (centres unmarked) [Structure 224],> 8.00
7,CC(CC1C=CC(C(=O)NC(CCCCN)C(=O)C(=O)NCCc2ccc(C(N)=O)cc2)n2c(=O)n(Cc3ccc(C(F)(F)F)cc3)c(=O)n21)CC(C)(C)C (centres unmarked) [Structure 133],> 8.00
8,CC(C)CC1C=CC(C(=O)NC(CCCCN)C(=O)C(=O)NCc2ccc(C(N)=O)cc2)n2c(=O)n(Cc3cccc4ccccc34)c(=O)n21 (centres unmarked) [Structure 109],> 8.00
9,NCCCCC(NC(=O)C1C=C2CCCCC2n2c(=O)n(CCc3cccs3)c(=O)n21)C(=O)C(=O)NCCc1ccc(C(N)=O)cc1 (centres unmarked) [Structure 119],> 8.00
10,CC1=CC(C(=O)NC(CCCNC(=N)N)C(=O)c2nc(C(N)=O)c[nH]2)n2c(=O)n(CC(c3ccccc3)c3ccccc3)c(=O)n2C1 (centres unmarked) [Structure 201],> 8.00
11,CC(C)CC1C=CC(C(=O)NC(CCCCN)C(=O)C(=O)NCCc2ccc(C(N)=O)cc2)n2c(=O)n(Cc3cc(F)ccc3F)c(=O)n21 (centres unmarked) [Structure 113],> 8.00
12,CC(C)CC1C=CC(C(=O)NC(CCCCN)C(=O)C(=O)NCc2ccc(C(N)=O)cc2)n2c(=O)n(C(c3ccccc3)c3ccccc3)c(=O)n21 (centres unmarked) [Structure 108],> 8.00
13,CC1=CC(C(=O)NC(CCCCN)C(=O)C(=O)NCCc2ccc(C(N)=O)cc2)n2c(=O)n(Cc3cccs3)c(=O)n2C1c1ccccc1 (centres unmarked) [Structure 124],> 8.00
14,CC(C)CC1C=CC(C(=O)NC(CCCCN)C(=O)C(=O)NCc2ccc(C(N)=O)cc2)n2c(=O)n(Cc3cccs3)c(=O)n21 (centres unmarked) [Structure 110],> 8.00
15,CC1=CC(C(=O)NC(CCCCN)C(=O)C(=O)NCc2ccc(C(=O)NCCc3ccccc3)cc2)n2c(=O)n(Cc3cc(F)ccc3F)c(=O)n2C1 (centres unmarked) [Structure 223],> 8.00
16,CC1=CC(C(=O)NC(CCCNC(=N)N)C(=O)c2nc3ccccc3s2)n2c(=O)n(CC(c3ccccc3)c3ccccc3)c(=O)n2C1 (centres unmarked) [Structure 215],> 8.00
17,NCCCCC(NC(=O)C1C=C2CCCCC2n2c(=O)n(Cc3cc(F)ccc3F)c(=O)n21)C(=O)C(=O)NCCc1ccc(C(N)=O)cc1 (centres unmarked) [Structure 101],> 8.00
18,CC(CC1C=CC(C(=O)NC(CCCCN)C(=O)C(=O)NCCc2ccc(C(N)=O)cc2)n2c(=O)n(C(Cc3ccccc3)c3ccccc3)c(=O)n21)CC(C)(C)C (centres unmarked) [Structure 129],> 8.00
19,CC(C)CC1C=CC(C(=O)NC(CCCCN)C(=O)C(=O)NCCc2ccc(C(N)=O)cc2)n2c(=O)n(Cc3cccc4ccccc34)c(=O)n21 (centres unmarked) [Structure 117],> 8.00
20,CC(CC1C=CC(C(=O)NC(CCCCN)C(=O)C(=O)NCCc2ccc(C(N)=O)cc2)n2c(=O)n(C(c3ccccc3)c3ccccc3)c(=O)n21)CC(C)(C)C (centres unmarked) [Structure 131],> 8.00
21,CC(CC1C=CC(C(=O)NC(CCCCN)C(=O)C(=O)NCCc2ccc(C(N)=O)cc2)n2c(=O)n(Cc3cc(F)ccc3F)c(=O)n21)CC(C)(C)C (centres unmarked) [Structure 135],> 8.00
22,CC(Cn1c(=O)n2n(c1=O)C1CCCCC1=CC2C(=O)NC(CCCCN)C(=O)C(=O)NCCc1ccc(C(N)=O)cc1)c1ccccc1 (centres unmarked) [Structure 121],> 8.00
23,CC1C=CC(C(=O)NC(CCCCN)C(=O)C(=O)NCc2ccc(C(N)=O)cc2)n2c(=O)n(CCc3cccs3)c(=O)n21 (centres unmarked) [Structure 146],> 8.00
24,CC1=CC(C(=O)NC(CCCCN)C(=O)C(=O)NCCc2ccc(C(N)=O)cc2)n2c(=O)n(CC(F)(F)F)c(=O)n2C1 (centres unmarked) [Structure 145],> 8.00
25,CC1=CC(C(=O)NC(CCCCN)C(=O)C(=O)NCCc2ccc(C(N)=O)cc2)n2c(=O)n(Cc3ccc(C(F)(F)F)c(F)c3)c(=O)n2C1 (centres unmarked) [Structure 137],> 8.00
